One test addresses T1, phospho-Ser520-DYRK1A (Homo sapiens, UniProt Q13627).
T1 construct: full-length, wild-type human DYRK1A (NM_001396) with an HA tag; expressed in transfected cells; host or cells: human U2-OS osteosarcoma cells, pcDNA3.1 plasmid
In words: Cellular DYRK1A autophosphorylation assay in U2-OS cells. It is filed as cell-based. The settings on record: 5 hours exposure, read-out: IC50 (μM) P-Ser520-Dyrk1A-Cell assay.

The target of test [1] is T2, His-TEV-DYRK1A Kinase domain (aa127-485) (Homo sapiens, UniProt Q13627).
T2 construct: His-TEV-DYRK1A Kinase domain (aa127-485); His (N); TEV cleavage site (N)
Put plainly: Kinase ADP assay (ADP Hunter Plus). It is filed as biochemical.

One may read the IC50 as the point on the concentration scale where inhibition reaches its midpoint. For `COc1cc(F)ccc1CNc1nc(C)nc2[nH]cc(-c3ccnc(N)c3)c12` [Example 84, 5-(2-aminopyridin-4-yl)-N-(4-fluoro-2-methoxybenzyl)-2-methyl-7H-pyrrolo[2,3-d]pyrimidin-4-amine], the figures for the IC50 (at phospho-Ser520-DYRK1A; in test [1]) were 0.0097 µM and 0.006 µM, respectively.

Take `Cc1nc(N2CCOCC2)c2c(-c3cc(N)nc(N)c3)c[nH]c2n1` [Example 140, 4-[2-methyl-4-(morpholin-4-yl)-7H-pyrrolo[2,3-d]pyrimidin-5-yl]pyridine-2,6-diamine]: the IC50 in test [1] was 1.22 µM.

For the compound `Cc1nc(N2CCn3ccnc3C2)c2c(-c3cc(N)nc(N)c3)c[nH]c2n1` [Example 141, 4-[4-(5,6-dihydroimidazo[1,2-a]pyrazin-7(8H)-yl)-2-methyl-7H-pyrrolo[2,3-d]pyrimidin-5-yl]pyridine-2,6-diamine], the IC50 in test [1] was 0.417 µM.

As for `Cc1nc(N2CCc3nccnc3C2)c2c(-c3cc(N)nc(N)c3)c[nH]c2n1` [Example 142, 4-[4-(7,8-dihydropyrido[3,4-b]pyrazin-6(5H)-yl)-2-methyl-7H-pyrrolo[2,3-d]pyrimidin-5-yl]pyridine-2,6-diamine], the IC50 in test [1] came to 0.512 µM.

Turning to `Cc1nc(N2CCOC(C)C2)c2c(-c3cc(N)nc(N)c3)c[nH]c2n1` (stereo not drawn) [Example 143, 4-[2-methyl-4-(2-methylmorpholin-4-yl)-7H-pyrrolo[2,3-d]pyrimidin-5-yl]pyridine-2,6-diamine], the half-inhibitory concentration (IC50) in test [1] was determined as 1.06 µM.

Consider `COC1CCCN(c2nc(C)nc3[nH]cc(-c4cc(N)nc(N)c4)c23)C1` (stereo not drawn) [Example 144, 4-[4-(3-methoxypiperidin-1-yl)-2-methyl-7H-pyrrolo[2,3-d]pyrimidin-5-yl]pyridine-2,6-diamine], for which the IC50 in test [1] came to 0.545 µM.

On to `COc1cccc(C(F)(F)F)c1CNc1nc(C)nc2[nH]cc(-c3ccnc(C)c3)c12` [Example 146, N-[2-methoxy-6-(trifluoromethyl)benzyl]-2-methyl-5-(2-methylpyridin-4-yl)-7H-pyrrolo[2,3-d]pyrimidin-4-amine], for which the half-maximal inhibitory concentration (IC50) in test [1] was determined as 0.172 µM.

With `Nc1cc(-c2c[nH]c3nc(C4CC4)nc(NCc4c(F)cccc4F)c23)ccn1` [Example 147, 5-(2-aminopyridin-4-yl)-2-cyclopropyl-N-(2,6-difluorobenzyl)-7H-pyrrolo[2,3-d]pyrimidin-4-amine], in test [1], the IC50 stood at 0.17 µM.

`C=C(C)c1nc(NCc2c(F)cccc2F)c2c(-c3ccnc(N)c3)c[nH]c2n1` [Example 149, 5-(2-aminopyridin-4-yl)-N-(2,6-difluorobenzyl)-2-(prop-1-en-2-yl)-7H-pyrrolo[2,3-d]pyrimidin-4-amine]: in test [1], the half-maximal inhibitory concentration (IC50) is 0.734 µM.

`C=Cc1nc(NCc2c(F)cccc2F)c2c(-c3ccnc(N)c3)c[nH]c2n1` [Example 151, 5-(2-aminopyridin-4-yl)-N-(2,6-difluorobenzyl)-2-ethenyl-7H-pyrrolo[2,3-d]pyrimidin-4-amine]: in test [1], the IC50 amounted to 0.028 µM.

Regarding `C#Cc1nc(-c2ccc3c(c2)OCO3)c2c(-c3cc(N)nc(N)c3)c[nH]c2n1` [Example 155, 4-[4-(1,3-benzodioxol-5-yl)-2-ethynyl-7H-pyrrolo[2,3-d]pyrimidin-5-yl]pyridine-2,6-diamine], the IC50 in test [1] is 0.024 µM.

For the compound `C#Cc1nc(-c2ccc3c(c2)OCO3)c2c(-c3ccnc(N)c3)c[nH]c2n1` [Example 156, 4-[4-(1,3-benzodioxol-5-yl)-2-ethynyl-7H-pyrrolo[2,3-d]pyrimidin-5-yl]pyridin-2-amine], the IC50 in test [1] was found to be 0.029 µM.

For `N#Cc1nc(NCc2c(F)cccc2F)c2c(-c3ccnc(N)c3)c[nH]c2n1` [Example 157, 5-(2-aminopyridin-4-yl)-4-[(2,6-difluorobenzyl)amino]-7H-pyrrolo[2,3-d]pyrimidine-2-carbonitrile], the IC50 in test [1] worked out at 0.26 µM.

With `Cc1nc(CCc2ccccc2)c2c(-c3ccnc(N)c3)c[nH]c2n1` [Example 160], the IC50 in test [1] was 0.184 µM.

`COc1cc(F)cc(-c2nc(C)nc3[nH]cc(-c4ccnc(N)c4)c23)c1` [Example 162, 4-[4-(3-fluoro-5-methoxyphenyl)-2-methyl-7H-pyrrolo[2,3-d]pyrimidin-5-yl]pyridin-2-amine]: in test [1], the IC50 came to 0.014 µM.

For `Cc1nc(-c2ccc(CN3CCCC3)cc2)c2c(-c3ccnc(N)c3)c[nH]c2n1` [Example 165], the half-inhibitory concentration (IC50) in test [1] was 0.301 µM.

For the compound `Cc1nc(-c2cccc(C(F)(F)F)c2)c2c(-c3ccnc(N)c3)c[nH]c2n1` [Example 168, 4-{2-methyl-4-[3-(trifluoromethyl)phenyl]-7H-pyrrolo[2,3-d]pyrimidin-5-yl}pyridin-2-amine], in test [1], the IC50 was 0.01 µM.

For the compound `Cc1nc(-c2ccc(CN3CCN(C)CC3)cc2)c2c(-c3ccnc(N)c3)c[nH]c2n1` [Example 169, 4-(2-methyl-4-{4-[(4-methylpiperazin-1-yl)methyl]phenyl}-7H-pyrrolo[2,3-d]pyrimidin-5-yl)pyridin-2-amine], in test [1], the IC50 worked out at 0.216 µM.

In the case of `Cc1nc(-c2cncc(F)c2)c2c(-c3ccnc(N)c3)c[nH]c2n1` [Example 170], in test [1], the IC50 stood at 1.82 µM.

On to `Cc1nc(-c2cccc(N3CCCC3)c2)c2c(-c3ccnc(N)c3)c[nH]c2n1` [Example 171], for which the IC50 in test [1] turned out to be 0.033 µM.

`CCOc1ccc(-c2nc(C)nc3[nH]cc(-c4ccnc(N)c4)c23)cc1` [Example 172]: in test [1], the IC50 stood at 0.037 µM.

Consider `Cc1nc(-c2cccc(OCCCN3CCOCC3)c2)c2c(-c3ccnc(N)c3)c[nH]c2n1` [Example 174, 4-(2-methyl-4-{3-[3-(morpholin-4-yl)propoxy]phenyl}-7H-pyrrolo[2,3-d]pyrimidin-5-yl)pyridin-2-amine], for which the IC50 in test [1] was 0.07 µM.

In the case of `Cc1nc(-c2ccc(C#N)c(F)c2)c2c(-c3ccnc(N)c3)c[nH]c2n1` [Example 175], the IC50 in test [1] stood at 0.146 µM.

On to `Cc1nc(CN2CCC(F)(F)C2)c2c(-c3ccnc(N)c3)c[nH]c2n1` [Example 176], for which the IC50 in test [1] was determined as 0.196 µM.

As to `Cc1nc(CN2CCCC(F)(F)C2)c2c(-c3ccnc(N)c3)c[nH]c2n1` [Example 177], in test [1], the IC50 is 0.532 µM.

`Cc1nc(-c2cc(F)cc(F)c2)c2c(-c3ccnc(N)c3)c[nH]c2n1` [Example 180]: the IC50 in test [1] is 0.079 µM.

As for `Cc1nc(C2CCc3ccccc3C2)c2c(-c3ccnc(N)c3)c[nH]c2n1` (stereo not drawn) [Example 188], in test [1], the concentration for half-maximal inhibition (IC50) came to 0.07 µM.

In the case of `Cc1nc([C@H]2CCc3ccccc3C2)c2c(-c3ccnc(N)c3)c[nH]c2n1` [Example 189], the IC50 in test [1] came out at 0.062 µM.

As to `Cc1nc([C@@H]2CCc3ccccc3C2)c2c(-c3ccnc(N)c3)c[nH]c2n1` [Example 190], the IC50 in test [1] turned out to be 0.419 µM.

Turning to `Cc1nc(COc2ccccc2C(F)(F)F)c2c(-c3ccnc(N)c3)c[nH]c2n1` [Example 193, 4-(2-methyl-4-{[2-(trifluoromethyl)phenoxy]methyl}-7H-pyrrolo[2,3-d]pyrimidin-5-yl)pyridin-2-amine], the concentration for half-maximal inhibition (IC50) in test [1] was determined as 0.116 µM.

For the compound `COc1ccccc1C#Cc1nc(C)nc2[nH]cc(-c3ccnc(N)c3)c12` [Example 197], the 50% inhibitory concentration (IC50) in test [1] amounted to 0.009 µM.

`Cc1nc(-c2cccc(OCCCN3CCCCC3)c2)c2c(-c3ccnc(N)c3)c[nH]c2n1` [Example 199]: the IC50 in test [1] came to 0.148 µM.

Regarding `Cc1nc(-c2cccc(OCCCN3CCN(C)CC3)c2)c2c(-c3ccnc(N)c3)c[nH]c2n1` [Example 200], in test [1], the 50% inhibitory concentration (IC50) turned out to be 0.027 µM.

For `Cc1nc(-c2cccc(OCCCl)c2)c2c(-c3ccnc(N)c3)c[nH]c2n1` [Example 201], the IC50 in test [1] is 0.012 µM.

With `Cc1nc(-c2cccc(OCCN3CCCC3)c2)c2c(-c3ccnc(N)c3)c[nH]c2n1` [Example 202], the 50% inhibitory concentration (IC50) in test [1] amounted to 0.144 µM.

As for `Cc1nc(-c2cccc(OCCN(C)C)c2)c2c(-c3ccnc(N)c3)c[nH]c2n1` [Example 203], the half-inhibitory concentration (IC50) in test [1] came out at 0.155 µM.

Take `Cc1nc(-c2cccc(OCCN3CCOCC3)c2)c2c(-c3ccnc(N)c3)c[nH]c2n1` [Example 204]: in test [1], the IC50 amounted to 0.089 µM.

As to `Cc1cc(-c2c[nH]c3nc(C)nc(NCc4c(F)cccc4F)c23)nc(N)n1` [Example 205, 5-(2-amino-6-methylpyrimidin-4-yl)-N-(2,6-difluorobenzyl)-2-methyl-7H-pyrrolo[2,3-d]pyrimidin-4-amine], the IC50 in test [1] turned out to be 0.055 µM.

In the case of `Cc1nc(-c2ccc3c(c2)OC(F)(F)O3)c2c(-c3ccnc(N)n3)c[nH]c2n1` [Example 210, 4-[4-(2,2-difluoro-1,3-benzodioxol-5-yl)-2-methyl-7H-pyrrolo[2,3-d]pyrimidin-5-yl]pyrimidin-2-amine], the IC50 in test [1] was determined as 0.05 µM.

With `C#Cc1nc(N2CCc3ccccc3C2)c2c(-c3ccnc(N)n3)c[nH]c2n1` [Example 211, 4-[4-(3,4-dihydroisoquinolin-2(1H)-yl)-2-ethynyl-7H-pyrrolo[2,3-d]pyrimidin-5-yl]pyrimidin-2-amine], the IC50 in test [1] was determined as 0.027 µM.

With `Cc1nc(NCc2c(F)cccc2F)c2c(-c3cc(N)ncn3)c[nH]c2n1` [Example 212, 5-(6-aminopyrimidin-4-yl)-N-(2,6-difluorobenzyl)-2-methyl-7H-pyrrolo[2,3-d]pyrimidin-4-amine], in test [1], the IC50 was 0.009 µM.

As for `Cc1cc(-c2cncc(F)c2)c2c(-c3ccnc(N)c3)c[nH]c2n1` [Example 214, 4-[4-(5-fluoropyridin-3-yl)-6-methyl-1H-pyrrolo[2,3-b]pyridin-3-yl]pyridin-2-amine], the concentration for half-maximal inhibition (IC50) in test [1] was 0.242 µM.

For the compound `N#Cc1cc(-c2ccc3c(c2)OCO3)c2c(-c3ccnc(N)c3)c[nH]c2n1` [Example 223, 3-(2-aminopyridin-4-yl)-4-(1,3-benzodioxol-5-yl)-1H-pyrrolo[2,3-b]pyridine-6-carbonitrile], the half-maximal inhibitory concentration (IC50) in test [1] was determined as 0.043 µM.

As to `Cc1cc(-c2ccc3c(c2)N(C)CCO3)c2c(-c3ccnc(N)c3)c[nH]c2n1` [Example 225, 4-[6-methyl-4-(4-methyl-3,4-dihydro-2H-1,4-benzoxazin-6-yl)-1H-pyrrolo[2,3-b]pyridin-3-yl]pyridin-2-amine], the IC50 in test [1] turned out to be 0.037 µM.

Source of the values: patent publication US20180273538A1, “PYRROLO[2,3-d]PYRIMIDINE DERIVATIVES, A PROCESS FOR THEIR PREPARATION AND PHARMACEUTICAL COMPOSITIONS CONTAINING THEM” (LES LABORATOIRES SERVIER, priority 2015, published 2018).
